From ChEMBL document CHEMBL3112450, “Synthesis and in vitro antitumor evaluation of primary amine substituted quinazoline linked benzimidazole” (Bioorg Med Chem Lett, 2014)

Tests used:
Format in all cases: functional
IGROV-1 [1] = assay: Cytotoxicity against human IGROV1 cells assessed as cell growth at 10^-7 M after 48 hrs by SRB assay; conditions: IGROV-1, 48 h, read-out: Activity
DU-145 = assay: Cytotoxicity against human DU145 cells assessed as cell growth at 10^-4 M after 48 hrs by SRB assay; conditions: DU-145, 48 h, read-out: Activity
SF-539 = assay: Cytotoxicity against human SF539 cells after 48 hrs by SRB assay; conditions: SF-539, 48 h
SN12C = assay: Cytotoxicity against human SN12C cells assessed as cell growth at 10^-7 M after 48 hrs by SRB assay; conditions: read-out: Activity
CAKI-1 [2] = assay: Cytotoxicity against human Caki1 cells assessed as cell growth at 10^-8 M after 48 hrs by SRB assay; conditions: CAKI-1, 48 h, read-out: Activity
SW-620 = assay: Cytotoxicity against human SW620 cells assessed as cell growth at 10^-6 M after 48 hrs by SRB assay; conditions: SW-620, 48 h, read-out: Activity
PC-3 [3] = assay: Cytotoxicity against human PC3 cells assessed as cell growth at 10^-8 M after 48 hrs by SRB assay; conditions: PC-3, 48 h, read-out: Activity
ACHN = assay: Cytotoxicity against human ACHN cells assessed as cell growth at 10^-6 M after 48 hrs by SRB assay; conditions: read-out: Activity
M14 [4] = assay: Cytotoxicity against human M14 cells assessed as cell growth at 10^-8 M after 48 hrs by SRB assay; conditions: M14, 48 h, read-out: Activity
NCI-H460 = assay: Cytotoxicity against human NCI-H460 cells after 48 hrs by SRB assay; conditions: NCI-H460, 48 h
HOP-62 = assay: Cytotoxicity against human HOP62 cells assessed as cell growth at 10^-8 M after 48 hrs by SRB assay; conditions: HOP-62, 48 h, read-out: Activity
OVCAR-3 = assay: Cytotoxicity against human OVCAR3 cells after 48 hrs by SRB assay; conditions: OVCAR-3, 48 h
PC-3 [5] = assay: Cytotoxicity against human PC3 cells assessed as cell growth at 10^-6 M after 48 hrs by SRB assay; conditions: PC-3, 48 h, read-out: Activity
RXF 393 = assay: Cytotoxicity against human RXF393 cells after 48 hrs by SRB assay; conditions: RXF 393, 48 h
MDA-MB-435 [6] = assay: Cytotoxicity against human MDA-MB-435 cells assessed as cell growth at 10^-4 M after 48 hrs by SRB assay; conditions: MDA-MB-435, 48 h, read-out: Activity
KM12 [7] = assay: Cytotoxicity against human KM12 cells after 48 hrs by SRB assay; conditions: KM12, 48 h
COLO 205 [8] = assay: Cytotoxicity against human COLO205 cells assessed as cell growth at 10^-6 M after 48 hrs by SRB assay; conditions: COLO 205, 48 h, read-out: Activity
786-0 = assay: Cytotoxicity against human 786-0 cells assessed as cell growth at 10^-7 M after 48 hrs by SRB assay; conditions: 786-0, 48 h, read-out: Activity
SK-OV-3 = assay: Cytotoxicity against human SKOV3 cells assessed as cell growth at 10^-7 M after 48 hrs by SRB assay; conditions: SK-OV-3, 48 h, read-out: Activity
COLO 205 [9] = assay: Cytotoxicity against human COLO205 cells assessed as cell growth at 10^-7 M after 48 hrs by SRB assay; conditions: COLO 205, 48 h, read-out: Activity
HT-29 [10] = assay: Cytotoxicity against human HT-29 cells assessed as cell growth at 10^-7 M after 48 hrs by SRB assay; conditions: HT-29, 48 h, read-out: Activity
M14 [11] = assay: Cytotoxicity against human M14 cells after 48 hrs by SRB assay; conditions: M14, 48 h
OVCAR-8 = assay: Cytotoxicity against human OVCAR8 cells assessed as cell growth at 10^-8 M after 48 hrs by SRB assay; conditions: OVCAR-8, 48 h, read-out: Activity
M14 [12] = assay: Cytotoxicity against human M14 cells assessed as cell growth at 10^-6 M after 48 hrs by SRB assay; conditions: M14, 48 h, read-out: Activity
Malme-3M = assay: Cytotoxicity against human MALME-3M cells after 48 hrs by SRB assay
[13] = Cytotoxicity against human OVCAR4 cells assessed as cell growth at 10^-4 M after 48 hrs by SRB assay; conditions: OVCAR-4, 48 h, read-out: Activity
KM12 [14] = assay: Cytotoxicity against human KM12 cells assessed as cell growth at 10^-8 M after 48 hrs by SRB assay; conditions: KM12, 48 h, read-out: Activity
MDA-MB-468 [15] = assay: Cytotoxicity against human MDA-MB-468 cells after 48 hrs by SRB assay; conditions: MDA-MB-468, 48 h
SNB-19 = assay: Cytotoxicity against human SNB19 cells assessed as cell growth at 10^-7 M after 48 hrs by SRB assay; conditions: SNB-19, 48 h, read-out: Activity
HT-29 [16] = assay: Cytotoxicity against human HT-29 cells after 48 hrs by SRB assay; conditions: HT-29, 48 h
COLO 205 [17] = assay: Cytotoxicity against human COLO205 cells after 48 hrs by SRB assay; conditions: COLO 205, 48 h
MDA-MB-468 [18] = assay: Cytotoxicity against human MDA-MB-468 cells assessed as cell growth at 10^-7 M after 48 hrs by SRB assay; conditions: MDA-MB-468, 48 h, read-out: Activity
CAKI-1 [19] = assay: Cytotoxicity against human Caki1 cells assessed as cell growth at 10^-4 M after 48 hrs by SRB assay; conditions: CAKI-1, 48 h, read-out: Activity
IGROV-1 [20] = assay: Cytotoxicity against human IGROV1 cells assessed as cell growth at 10^-8 M after 48 hrs by SRB assay; conditions: IGROV-1, 48 h, read-out: Activity
SK-MEL-5 = assay: Cytotoxicity against human SK-MEL-5 cells assessed as cell growth at 10^-6 M after 48 hrs by SRB assay; conditions: SK-MEL-5, 48 h, read-out: Activity
SK-MEL-2 = assay: Cytotoxicity against human SK-MEL-2 cells after 48 hrs by SRB assay; conditions: SK-MEL-2, 48 h
CAKI-1 [21] = assay: Cytotoxicity against human Caki1 cells assessed as cell growth at 10^-6 M after 48 hrs by SRB assay; conditions: CAKI-1, 48 h, read-out: Activity
SF-295 = assay: Cytotoxicity against human SF295 cells after 48 hrs by SRB assay; conditions: SF-295, 48 h
MDA-MB-435 [22] = assay: Cytotoxicity against human MDA-MB-435 cells assessed as cell growth at 10^-7 M after 48 hrs by SRB assay; conditions: MDA-MB-435, 48 h, read-out: Activity
[23] = read-out: LC50 (the source's name)

## C=CCn1c(C)nc2cc(Nc3nc(Nc4ccc5nc(C)n(CC=C)c5c4)c4ccccc4n3)ccc21
IGROV-1 [1]
  growth at 0.1 µM: 106%
DU-145
  growth at 100 µM: -98%
SF-539
  GI50: 1.1 µM
  LC50 (concentration giving 50% net cell kill): 4.79 µM
  TGI: 2.3 µM
SN12C
  growth at 0.1 µM: 92%
CAKI-1 [2]
  growth at 0.01 µM: 94%
SW-620
  growth at 1 µM: -69%
PC-3 [3]
  growth at 0.01 µM: 98%
ACHN
  growth at 1 µM: 35%
M14 [4]
  growth at 0.01 µM: 100%
NCI-H460
  GI50: 0.22 µM
HOP-62
  growth at 0.01 µM: 98%
OVCAR-3
  GI50: 0.192 µM
  LC50: 0.701 µM
  TGI: 0.367 µM
PC-3 [5]
  growth at 1 µM: 1%
RXF 393
  GI50: 0.373 µM
  TGI: 1.79 µM
MDA-MB-435 [6]
  growth at 100 µM: -30%
KM12 [7]
  GI50: 0.223 µM
  LC50 (concentration killing 50% of cells): 1.46 µM
  TGI: 0.513 µM
COLO 205 [8]
  growth at 1 µM: -75%
786-0
  growth at 0.1 µM: 98%
SK-OV-3
  growth at 0.1 µM: 106%
COLO 205 [9]
  growth at 0.1 µM: 101%
HT-29 [10]
  growth at 0.1 µM: 103%
M14 [11]
  GI50: 1.43 µM
  TGI: 3.24 µM
OVCAR-8
  growth at 0.01 µM: 100%
M14 [12]
  growth at 1 µM: 72%
Malme-3M
  GI50: 2.27 µM
  TGI: 4.1 µM
[13]
  growth at 100 µM: -29%
KM12 [14]
  growth at 0.01 µM: 96%
MDA-MB-468 [15]
  GI50: 0.216 µM
  LC50 (concentration killing 50% of cells): > 100 µM
  TGI: 0.578 µM
SNB-19
  growth at 0.1 µM: 88%
HT-29 [16]
  GI50: 0.19 µM
  LC50 (concentration killing 50% of cells): 100 µM
  TGI: 0.349 µM
COLO 205 [17]
  GI50: 0.195 µM
  TGI: 0.375 µM
MDA-MB-468 [18]
  growth at 0.1 µM: 89%
CAKI-1 [19]
  growth at 100 µM: -54%
IGROV-1 [20]
  growth at 0.01 µM: 103%
SK-MEL-5
  growth at 1 µM: 78%
SK-MEL-2
  GI50: 1.44 µM
  TGI: 3.08 µM
CAKI-1 [21]
  growth at 1 µM: 88%
SF-295
  GI50: 1.44 µM
  LC50: 5.24 µM
  TGI: 2.75 µM
MDA-MB-435 [22]
  growth at 0.1 µM: 97%

## C=CCn1c(C)nc2ccc(Nc3nc(Nc4ccc(F)cc4)nc4ccccc34)cc21
IGROV-1 [1]
  growth at 0.1 µM: 94%
DU-145
  growth at 100 µM: -84%
SF-539
  GI50: 12.3 µM
  LC50 (concentration giving 50% net cell kill): 53.9 µM
  TGI: 25.7 µM
SN12C
  growth at 0.1 µM: 96%
CAKI-1 [2]
  growth at 0.01 µM: 100%
SW-620
  growth at 1 µM: 89%
PC-3 [3]
  growth at 0.01 µM: 98%
ACHN
  growth at 1 µM: 94%
M14 [4]
  growth at 0.01 µM: 93%
NCI-H460
  GI50: 3.11 µM
  LC50 (concentration killing 50% of cells): 83.9 µM
  TGI: 14.5 µM
HOP-62
  growth at 0.01 µM: 93%
OVCAR-3
  GI50: 5.04 µM
  LC50: 46.3 µM
  TGI: 17.8 µM
PC-3 [5]
  growth at 1 µM: 84%
RXF 393
  GI50: 1.23 µM
  TGI: 2.57 µM
RXF 393; [23]
  CC50: 5.38 µM
MDA-MB-435 [6]
  growth at 100 µM: -53%
KM12 [7]
  GI50: 4.07 µM
  LC50 (concentration killing 50% of cells): 51.8 µM
  TGI: 16.4 µM
COLO 205 [8]
  growth at 1 µM: 95%
786-0
  growth at 0.1 µM: 98%
SK-OV-3
  growth at 0.1 µM: 112%
COLO 205 [9]
  growth at 0.1 µM: 103%
HT-29 [10]
  growth at 0.1 µM: 101%
M14 [11]
  GI50: 3.26 µM
  TGI: 14.2 µM
M14 [11]; [23]
  CC50: > 100 µM
OVCAR-8
  growth at 0.01 µM: 98%
M14 [12]
  growth at 1 µM: 94%
Malme-3M
  GI50: 13.1 µM
  LC50: 97.3 µM
  TGI: 35.7 µM
[13]
  growth at 100 µM: -13%
KM12 [14]
  growth at 0.01 µM: 95%
MDA-MB-468 [15]
  GI50: 1.23 µM
  TGI: 2.6 µM
SNB-19
  growth at 0.1 µM: 93%
HT-29 [16]
  GI50: 3 µM
  LC50 (concentration killing 50% of cells): > 100 µM
  TGI: 13.3 µM
COLO 205 [17]
  GI50: 1.75 µM
  TGI: 3.25 µM
MDA-MB-468 [18]
  growth at 0.1 µM: 74%
CAKI-1 [19]
  growth at 100 µM: -53%
IGROV-1 [20]
  growth at 0.01 µM: 95%
SK-MEL-5
  growth at 1 µM: 73%
SK-MEL-2
  GI50: 3.16 µM
  LC50: 53.3 µM
  TGI: 11.4 µM
CAKI-1 [21]
  growth at 1 µM: 93%
SF-295
  GI50: 6.08 µM
  LC50: 51 µM
  TGI: 20.3 µM
MDA-MB-435 [22]
  growth at 0.1 µM: 100%
